Results reported in patent US7829568B2, “Substituted 5,6,7,8-tetrahydroimidazo[1,2-a]pyridin-2-ylamine compounds and their use for producing drugs” (Gruenenthal GmbH, priority 2005, dated 2010).

System: batrachotoxin (BTX) binding site of the sodium channel
Assay: Affinity to the batrachotoxin (BTX) binding site of the sodium channel
Design: species or system rat
Conditions: [3H]-batrachotoxinin A20 α-benzoate 10 nM; synaptosomes from rat cerebral cortex; test concentration not given

## CN(C(=O)c1cccc2ccccc12)c1nc2n(c1C(=O)NCCc1ccc(Oc3ccccc3)cc1)CCCC2 [Example 68, 2-[methyl-(naphthalene-1-carbonyl)-amino]-5,6,7,8-tetrahydro-imidazo[1,2-a]pyridine-3-carboxylic acid [2-(4-phenoxy-phenyl)-ethyl]-amide]
  BTX inhibition (rat) (% inhibition): 87%

## CCCCN(C(=O)c1cccc(Cl)c1)c1nc2n(c1C(=O)NCCc1c[nH]c3c(C)cccc13)CCCC2 [Example 69, 2-[butyl-(3-chloro-benzoyl)-amino]-5,6,7,8-tetrahydro-imidazo[1,2-a]pyridine-3-carboxylic acid [2-(7-methyl-1H-indol-3-yl)-ethyl]-amide]
  BTX inhibition (rat) (% inhibition): 48%

## CN(C(=O)c1cccc(Cl)c1)c1nc2n(c1C(=O)NCCc1cccc(C(F)(F)F)c1)CCCC2 [Example 71, 2-[(3-chloro-benzoyl)-methyl-amino]-5,6,7,8-tetrahydro-imidazo[1,2-a]pyridine-3-carboxylic acid [2-(3-trifluoromethyl-phenyl)-ethyl]-amide]
  BTX inhibition (rat) (% inhibition): 36%

## CCCCN(C(=O)c1cccc(Cl)c1)c1nc2n(c1C(=O)N1CCN(c3ccccn3)CC1)CCCC2 [Example 72, N-butyl-3-chloro-N-[3-(4-pyridin-2-yl-piperazine-1-carbonyl)-5,6,7,8-tetrahydro-imidazo[1,2-a]pyridin-2-yl]-benzamide]
  BTX inhibition (rat) (% inhibition): 39%

## CN(C(=O)c1cccc2ccccc12)c1nc2n(c1C(=O)N(C)C1CCN(Cc3ccc(-c4ccccc4)cc3)C1)CCCC2 (centres unmarked) [Example 76, 2-[methyl-(naphthalene-1-carbonyl)-amino]-5,6,7,8-tetrahydro-imidazo[1,2-a]pyridine-3-carboxylic acid (1-biphenyl-4-ylmethyl-pyrrolidin-3-yl)-methyl-amide]
  BTX inhibition (rat) (% inhibition): 95%

## CCCCN(C(=O)c1cccc(Cl)c1)c1nc2n(c1C(=O)NCC1COc3ccccc3O1)CCCC2 (centres unmarked) [Example 77, 2-[butyl-(3-chloro-benzoyl)-amino]-5,6,7,8-tetrahydro-imidazo[1,2-a]pyridine-3-carboxylic acid (2,3-dihydro-benzo[1,4]dioxin-2-ylmethyl)-amide]
  BTX inhibition (rat) (% inhibition): 56%

## CCCCN(C(=O)c1cccc(Cl)c1)c1nc2n(c1C(=O)N1CCN(c3cccc(C(F)(F)F)c3)CC1)CCCC2 [Example 79, N-butyl-3-chloro-N-{3-[4-(3-trifluoromethyl-phenyl)-piperazine-1-carbonyl]-5,6,7,8-tetrahydro-imidazo[1,2-a]pyridin-2-yl}-benzamide]
  BTX inhibition (rat) (% inhibition): 83%

## CN(C(=O)c1cccc(Cl)c1)c1nc2n(c1C(=O)N1CCC(O)(c3cccc(C(F)(F)F)c3)CC1)CCCC2 [Example 81, 3-chloro-N-{3-[4-hydroxy-4-(3-trifluoromethyl-phenyl)-piperidine-1-carbonyl]-5,6,7,8-tetrahydro-imidazo[1,2-a]pyridin-2-yl}-N-methyl-benzamide]
  BTX inhibition (rat) (% inhibition): 33%

## CN(C(=O)c1cccc(Cl)c1)c1nc2n(c1C(=O)NC1CCN(Cc3c(Cl)cccc3Cl)C1)CCCC2 (centres unmarked) [Example 83, 2-[(3-chloro-benzoyl)-methyl-amino]-5,6,7,8-tetrahydro-imidazo[1,2-a]pyridine-3-carboxylic acid [1-(2,6-dichlor-benzyl)-pyrrolidin-3-yl]-amide]
  BTX inhibition (rat) (% inhibition): 80%

## COc1cc(Br)c(CN2CCC(NC(=O)c3c(N(C)C(=O)c4cccc(Cl)c4)nc4n3CCCC4)C2)cc1OC (centres unmarked) [Example 84, 2-[(3-chloro-benzoyl)-methyl-amino]-5,6,7,8-tetrahydro-imidazo[1,2-a]pyridin-3-carboxylic acid [1-(2-bromo-4,5-dimethoxy-benzyl)-pyrrolidin-3-yl]-amide]
  BTX inhibition (rat) (% inhibition): 87%

## CN(C(=O)c1ccccc1)c1nc2n(c1C(=O)Nc1ccc3c(c1)OCO3)CCCC2 [Example 85, 2-(benzoyl-methyl-amino)-5,6,7,8-tetrahydro-imidazo[1,2-a]pyridine-3-carboxylic acid benzo[1,3]dioxol-5-ylamide]
  BTX inhibition (rat) (% inhibition): 30%

## CCCCN(C(=O)c1cccc(Cl)c1)c1nc2n(c1C(=O)NC(COC)Cc1ccccc1)CCCC2 (centres unmarked) [Example 86, 2-[butyl-(3-chloro-benzoyl)-amino]-5,6,7,8-tetrahydro-imidazo[1,2-a]pyridine-3-carboxylic acid (1-methoxymethyl-2-phenyl-ethyl)-amide]
  BTX inhibition (rat) (% inhibition): 42%

## CCCCN(C(=O)c1cccc(Cl)c1)c1nc2n(c1C(=O)N(C)C1CCN(Cc3c(Cl)cccc3Cl)C1)CCCC2 (centres unmarked) [Example 87, 2-[butyl-(3-chloro-benzoyl)-amino]-5,6,7,8-tetrahydro-imidazo[1,2-a]pyridine-3-carboxylic acid [1-(2,6-dichloro-benzyl)-pyrrolidin-3-yl]-methyl-amide]
  BTX inhibition (rat) (% inhibition): 93%

## CCCCN(C(=O)c1ccc(F)c(F)c1)c1nc2n(c1C(=O)NCc1ccccc1OC(F)(F)F)CCCC2 [Example 88, 2-[butyl-(3,4-difluoro-benzoyl)-amino]-5,6,7,8-tetrahydro-imidazo[1,2-a]pyridine-3-carboxylic acid 2-trifluoromethoxy-benzylamide]
  BTX inhibition (rat) (% inhibition): 31%

## CCCCN(C(=O)c1cccc(Cl)c1)c1nc2n(c1C(=O)N[C@H](C(=O)OCc1ccccc1)C(C)C)CCCC2 [Example 91]
  BTX inhibition (rat) (% inhibition): 48%

## CCCCN(C(=O)c1cccc(Cl)c1)c1nc2n(c1C(=O)NCCSCc1c(Cl)cccc1Cl)CCCC2 [Example 95, 2-[butyl-(3-chloro-benzoyl)-amino]-5,6,7,8-tetrahydro-imidazo[1,2-a]pyridine-3-carboxylic acid [2-(2,6-dichlor-benzylsulphanyl)-ethyl]-amide]
  BTX inhibition (rat) (% inhibition): 68%

## CCCCN(C(=O)c1ccc(F)c(F)c1)c1nc2n(c1C(=O)NCC1COc3ccccc3O1)CCCC2 (centres unmarked) [Example 96, 2-[butyl-(3,4-difluoro-benzoyl)-amino]-5,6,7,8-tetrahydro-imidazo[1,2-a]pyridine-3-carboxylic acid (2,3-dihydro-benzo[1,4]dioxin-2-ylmethyl)-amide]
  BTX inhibition (rat) (% inhibition): 33%

## CN(C(=O)c1cccc2ccccc12)c1nc2n(c1C(=O)NCc1ccccc1OC(F)(F)F)CCCC2 [Example 99, 2-[methyl-(naphthalene-1-carbonyl)-amino]-5,6,7,8-tetrahydro-imidazo[1,2-a]pyridine-3-carboxylic acid 2-trifluoromethoxy-benzylamide]
  BTX inhibition (rat) (% inhibition): 33%

## Cc1ccc(C)c(N2CCN(C(=O)c3c(N(C)C(=O)c4cccc(Cl)c4)nc4n3CCCC4)CC2)c1 [Example 100, 3-chloro-N-{3-[4-(2,5-dimethyl-phenyl)-piperazine-1-carbonyl]-5,6,7,8-tetrahydro-imidazo[1,2-a]pyridin-2-yl}-N-methyl-benzamide]
  BTX inhibition (rat) (% inhibition): 74%

## CN(C(=O)c1ccccc1)c1nc2n(c1C(=O)NC1CCN(Cc3c(Cl)cccc3Cl)C1)CCCC2 (centres unmarked) [Example 101, 2-(benzoyl-methyl-amino)-5,6,7,8-tetrahydro-imidazo[1,2-a]pyridine-3-carboxylic acid [1-(2,6-dichloro-benzyl)-pyrrolidin-3-yl]-amide]
  BTX inhibition (rat) (% inhibition): 54%

## CN(C(=O)c1cccc(Cl)c1)c1nc2n(c1C(=O)N1CCN(CCc3ccccc3)CC1)CCCC2 [Example 106, 3-chloro-N-methyl-N-[3-(4-phenethyl-piperazine-1-carbonyl)-5,6,7,8-tetrahydro-imidazo[1,2-a]pyridin-2-yl]-benzamide]
  BTX inhibition (rat) (% inhibition): 40%

## CCCCN(C(=O)c1cccc(Cl)c1)c1nc2n(c1C(=O)NCCOc1ccccc1)CCCC2 [Example 107, 2-[butyl-(3-chloro-benzoyl)-amino]-5,6,7,8-tetrahydro-imidazo[1,2-a]pyridine-3-carboxylic acid (2-phenoxy-ethyl)-amide]
  BTX inhibition (rat) (% inhibition): 39%

## CN(C(=O)c1cccc2ccccc12)c1nc2n(c1C(=O)N1CCN(Cc3cc4ccccc4o3)CC1)CCCC2 [Example 108, naphthalene-1-carboxylic acid [3-(4-benzofuran-2-ylmethyl-piperazine-1-carbonyl)-5,6,7,8-tetrahydro-imidazo[1,2-a]pyridin-2-yl]-methyl-amide]
  BTX inhibition (rat) (% inhibition): 41%

## CCCCN(C(=O)c1cccc(Cl)c1)c1nc2n(c1C(=O)NCc1cccc(C)c1)CCCC2 [Example 113, 2-[butyl-(3-chloro-benzoyl)-amino]-5,6,7,8-tetrahydro-imidazo[1,2-a]pyridine-3-carboxylic acid 3-methyl-benzylamide]
  BTX inhibition (rat) (% inhibition): 31%

## CCCCN(C(=O)c1ccc(F)c(F)c1)c1nc2n(c1C(=O)N1CCN(c3cc(Cl)ccc3C)CC1)CCCC2 [Example 119, N-butyl-N-{3-[4-(5-chloro-2-methyl-phenyl)-piperazine-1-carbonyl]-5,6,7,8-tetrahydro-imidazo[1,2-a]pyridin-2-yl}-3,4-difluoro-benzamide]
  BTX inhibition (rat) (% inhibition): 83%

## CCCCN(C(=O)c1cccc(Cl)c1)c1nc2n(c1C(=O)NC1CCCCC1)CCCC2 [Example 120, 2-[butyl-(3-chloro-benzoyl)-amino]-5,6,7,8-tetrahydro-imidazo[1,2-a]pyridine-3-carboxylic acid cyclohexylamide]
  BTX inhibition (rat) (% inhibition): 61%

## CCCCN(C(=O)c1cccc(Cl)c1)c1nc2n(c1C(=O)NC1CCCCC1OCc1ccccc1)CCCC2 (centres unmarked) [Example 124, 2-[butyl-(3-chloro-benzoyl)-amino]-5,6,7,8-tetrahydro-imidazo[1,2-a]pyridine-3-carboxylic acid (2-benzyloxy-cyclohexyl)-amide]
  BTX inhibition (rat) (% inhibition): 48%

## CCCCN(C(=O)c1cccc(Cl)c1)c1nc2n(c1C(=O)NCc1ccc(OC(F)(F)F)cc1)CCCC2 [Example 127, 2-[butyl-(3-chloro-benzoyl)-amino]-5,6,7,8-tetrahydro-imidazo[1,2-a]pyridine-3-carboxylic acid 4-trifluoromethoxy-benzylamide]
  BTX inhibition (rat) (% inhibition): 60%

## CN(C(=O)c1cccc(Cl)c1)c1nc2n(c1C(=O)NCCC(c1ccccc1)c1ccccc1)CCCC2 [Example 128, 2-[(3-chloro-benzoyl)-methyl-amino]-5,6,7,8-tetrahydro-imidazo[1,2-a]pyridine-3-carboxylic acid (3,3-diphenyl-propyl)-amide]
  BTX inhibition (rat) (% inhibition): 85%
